{"source": "patent US9655942B2", "about": "“Medical formulation for treating hypercholesterolemia” (priority 2012, dated 2017)", "key": {"[1]": {"tested_on": "patients suffering from increased low density lipoprotein (LDL) levels", "assay": "Example 2: blood level effects (cholesterol, HDL, LDL, non-HDL, risk factor, triglycerides) after three months", "format": "in vivo, human", "conditions": "for HDL / LDL / Non-HDL cholesterol / Total cholesterol / Triglycerides: group value; for Risk factor: total cholesterol blood level divided by HDL blood level", "method": "Especially, the present invention relates to the present medical formulations for recuperation of vascular walls, lowering low density lipoprotein blood levels, lowering the viscosity of blood, lowering blood pressure, and/or increasing high density lipoprotein levels. Preferably, the present invention relates to the present medical formulation for reducing the risk factor in humans, or patients, at risk of hypercholesterolemia, wherein the risk factor is determined by the total cholesterol blood level divided by the HDL blood level.\n(§1) As control, group 1 of 5 patients suffering from increased low density lipoprotein (LDL) levels were treated for three months with a formulation comprising, as daily dose 11.40 mg extract of lovastatin.\n(§2) A group 2 of 14 patients suffering from increased low density lipoprotein (LDL) levels were treated for three months with a formulation comprising, as daily dose: • 4.80 mg bark extract of cinnamomum zeylanicum; • 24.20 mg fibre extract of Pinus pinaster; • 24.00 mg bark extract Saccharum officinarum; • 11.40 mg lovastatin; • 1.2 mg leave extract of Taraxacum officinale; • 16 mg leave extract of Camellia sinensis; • 20 mg nicotinamide; • 14 mg 50% alpha tocopherol; • 60 mg coenzyme Q10; • 37.80 mg fish oil comprising 19.2 wt % eicosapentaenoic acid and 12.9 wt % docosahexanoic acid; • 60.00 mg beta-glucan; and • 1 mg cholecalciferol.\n(§3) The above ingredients were divided in two capsules for daily intake. The capsules were composed of gelatin. One capsule was taken during breakfast; the other was taken during dinner."}, "[2]": {"tested_on": "patients suffering from increased low density lipoprotein (LDL) levels", "assay": "Example 2: blood pressure after three months", "format": "in vivo, human", "method": "as §1, §2, §3"}}, "data": [{"smiles": "CC[C@H](C)C(=O)O[C@H]1C[C@@H](C)C=C2C=C[C@H](C)[C@H](CC[C@@H]3C[C@@H](O)CC(=O)O3)[C@H]21", "note": "[lovastatin]", "values": [{"measurement": "HDL Δ", "setting": "[1]; change T = 0 to T = 3 months", "result": -4.0, "unit": "mg/dL"}, {"measurement": "LDL Δ", "setting": "[1]; change T = 0 to T = 3 months", "result": -23.0, "unit": "mg/dL"}, {"measurement": "Non-HDL cholesterol Δ", "setting": "[1]; change T = 0 to T = 3 months", "result": -28.0, "unit": "mg/dL"}, {"measurement": "Risk factor Δ", "setting": "[1]; change T = 0 to T = 3 months", "result": -0.41}, {"measurement": "Total cholesterol Δ", "setting": "[1]; change T = 0 to T = 3 months", "result": -26.2, "unit": "mg/dL"}, {"measurement": "Triglycerides Δ", "setting": "[1]; change T = 0 to T = 3 months", "result": -19, "unit": "mg/dL"}, {"measurement": "HDL", "setting": "[1]; T = 0 (before treatment)", "result": 72.0, "unit": "mg/dL"}, {"measurement": "LDL", "setting": "[1]; T = 0 (before treatment)", "result": 96.2, "unit": "mg/dL"}, {"measurement": "Non-HDL cholesterol", "setting": "[1]; T = 0 (before treatment)", "result": 129.4, "unit": "mg/dL"}, {"measurement": "Total cholesterol", "setting": "[1]; T = 0 (before treatment)", "result": 201.4, "unit": "mg/dL"}, {"measurement": "Triglycerides", "setting": "[1]; T = 0 (before treatment)", "result": 165.8, "unit": "mg/dL"}, {"measurement": "HDL", "setting": "[1]; T = 3 (three months treatment)", "result": 68.0, "unit": "mg/dL"}, {"measurement": "LDL", "setting": "[1]; T = 3 (three months treatment)", "result": 73.2, "unit": "mg/dL"}, {"measurement": "Non-HDL cholesterol", "setting": "[1]; T = 3 (three months treatment)", "result": 101.4, "unit": "mg/dL"}, {"measurement": "Total cholesterol", "setting": "[1]; T = 3 (three months treatment)", "result": 175.2, "unit": "mg/dL"}, {"measurement": "Triglycerides", "setting": "[1]; T = 3 (three months treatment)", "result": 146.8, "unit": "mg/dL"}, {"measurement": "reduction of risk factor", "setting": "[1]; three months treatment, stated as size of reduction", "result": 0.41}, {"measurement": "Risk factor", "setting": "[1]; T = 0 (before treatment)", "result": 2.91}, {"measurement": "Risk factor", "setting": "[1]; T = 3 (three months treatment)", "result": 2.5}, {"measurement": "Diastolic", "setting": "[2]; T = 0 (before treatment)", "result": 79.2, "unit": "mmHg"}, {"measurement": "Systolic", "setting": "[2]; T = 0 (before treatment)", "result": 120.0, "unit": "mmHg"}, {"measurement": "Diastolic", "setting": "[2]; T = 3 (three months treatment)", "result": 79.1, "unit": "mmHg"}, {"measurement": "Systolic", "setting": "[2]; T = 3 (three months treatment)", "result": 130.0, "unit": "mmHg"}, {"measurement": "Diastolic Δ", "setting": "[2]; change T = 0 to T = 3 months", "result": "−0.1", "unit": "mmHg"}]}]}
